Literature values, collected in publication PMC6311893, “Computational prediction of plasma protein binding of cyclic peptides from small molecule experimental data using sparse modeling techniques” (BMC Bioinformatics, 2018).
Where two headings read alike, the source gives them in different places.

Test system: plasma protein
Conditions: cited from earlier work
[1] = fraction bound to plasma protein, small molecule dataset, sheet 1-SM, ref Ingle et al.
[2] = fraction bound to plasma protein, small molecule dataset, sheet 1-SM (Set Dte = test, Dtr = training), ref Ingle et al.
[3] = fraction bound to plasma protein, small molecule dataset, sheet 1-SM, Set Dtr, ref Ingle et al.

CC(=O)/N=c1/sc(S(N)(=O)=O)nn1C [methazolamide]
PPB (fb) [1]: 0.55

COc1cc2nc(N3CCN(C(=O)C4CCCO4)CC3)nc(N)c2cc1OC (stereo not drawn) [Terazosin]
PPB (fb) [1]: 0.91

C[N+](C)(C)CCOC(=O)CCC(=O)OCC[N+](C)(C)C [succinylcholine]
PPB (fb) (plasma): 0.3

CC[C@@]1(O)C(=O)OCc2c1cc1n(c2=O)Cc2cc3c(CN(C)C)c(O)ccc3nc2-1 [Topotecan]
PPB (fb) [1]: 0.25

CCC1(c2ccccc2)CCC(=O)NC1=O (stereo not drawn) [glutethimide]
PPB (fb) (plasma): 0.5

CCN1CCCC1CNC(=O)c1cc(S(N)(=O)=O)ccc1OC (stereo not drawn) [sulpiride]
PPB (fb) [2]: 0.25

C[C@]12CCC(=O)C(O)=C1CC[C@@H]1[C@@H]2CC[C@]2(C)C(=O)CC[C@@H]12 [formestane]
PPB (fb) (plasma): 0.84

CCOC(=O)OC(C)OC(=O)[C@@H]1N2C(=O)[C@@H](NC(=O)[C@H](N)c3ccccc3)[C@H]2SC1(C)C (stereo partly drawn) [bacampicillin]
PPB (fb) [2]: 0.2

CCc1nnc(NS(=O)(=O)c2ccc(N)cc2)s1 [sulfaethidole]
PPB (fb) [1]: 0.97

phenprocoumon
PPB (fb) (plasma): 0.99

COC(CC(=O)NC1C(=O)N2C1SC(C)(C)C2C(=O)O)c1ccc(Cl)s1 (stereo not drawn) [penicillin75]
PPB (fb) [2]: 0.84

CCOC(=O)C1(c2ccccc2)CCN(C)CC1 [Meperidine]
PPB (fb) (plasma): 0.58

O=P1(NCCCl)OCCCN1CCCl (stereo not drawn) [Ifosfamide]
PPB (fb) (plasma): 0

C[C@H](CCC(=O)O)[C@H]1CC[C@H]2[C@@H]3[C@@H](O)C[C@@H]4C[C@H](O)CC[C@]4(C)[C@H]3CC[C@]12C [ursodiol]
PPB (fb) [3]: 0.97

Nc1nc(Cl)nc2c1ncn2[C@H]1C[C@H](O)[C@@H](CO)O1 [Cladribine]
PPB (fb) [3]: 0.2

O=C1CCc2ccc(OCCCCN3CCN(c4cccc(Cl)c4Cl)CC3)cc2N1 [Aripiprazole]
PPB (fb) [3]: 0.99

NCCCNCCSP(=O)(O)O [amifostine]
PPB (fb) [2]: 0.04

Cc1nc2n(c(=O)c1CCN1CCC(c3noc4cc(F)ccc34)CC1)CCCC2O (stereo not drawn) [9-Hydroxyrisperidone]
PPB (fb) [2]: 0.77

CC(C)OC(=O)OCOP(=O)(CO[C@H](C)Cn1cnc2c(N)ncnc21)OCOC(=O)OC(C)C [tenofovir disoproxil]
PPB (fb) [1]: 0.07

Cc1onc(-c2c(F)cccc2Cl)c1C(=O)N[C@@H]1C(=O)N2[C@@H]1SC(C)(C)[C@@H]2C(=O)O [Flucloxacillin]
PPB (fb) [3]: 0.95

O=C1CCC(Cc2ccc(O)c(O)c2)O1 (stereo not drawn)
PPB (fb) [2]: 0.35

CC/C=C\C/C=C\C/C=C\C/C=C\C/C=C\C/C=C/CCC(=O)O[C@@H](C(=O)O[C@H]1C[C@@]2(O)[C@@H](OC(=O)c3ccccc3)C3[C@](C)(C(=O)[C@H](OC(C)=O)C(=C1C)C2(C)C)[C@@H](O)C[C@H]1OC[C@@]31OC(C)=O)[C@@H](NC(=O)c1ccccc1)c1ccccc1 (stereo partly drawn) [DHA Paclitaxel]
PPB (fb) (plasma): 0.9962

O=C(NC1CCN(CCc2c[nH]c3ccccc23)CC1)c1ccccc1 [Indoramin]
PPB (fb) [3]: 0.83

CCC1(C2=CCCCC2)C(=O)NC(=O)NC1=O [cyclobarbital]
PPB (fb) (plasma): 0.7

O=C(C[S+]([O-])C(c1ccccc1)c1ccccc1)NO (stereo not drawn) [adrafinil]
PPB (fb) (plasma): 0.8

CC(CN(C)C)CN1c2ccccc2CCc2ccccc21 (stereo not drawn) [Trimipramine]
PPB (fb) [1]: 0.95

O=C(NCCO[N+](=O)[O-])c1cccnc1 [nicorandil]
PPB (fb) [1]: 0.25

O=c1[nH]c2ccccc2n1CCCN1CCC(n2c(=O)[nH]c3cc(Cl)ccc32)CC1 [Domperidone]
PPB (fb) [3]: 0.92

Nc1nc2c(ncn2CCC(CO)CO)c(=O)[nH]1 [Penciclovir]
PPB (fb) [3]: 0.13

CC1(C)SC2C(NC(=O)C(Cl)c3ccc(Cl)cc3)C(=O)N2C1C(=O)O (stereo not drawn) [penicillin24]
PPB (fb) [1]: 0.94

NC(=O)OCC(COC(N)=O)c1ccccc1 [felbamate]
PPB (fb) [1]: 0.23

CCC(C)C1OC2(CCC1C)CC1CC(C/C=C(\C)C(OC3CC(OC)C(OC4CC(OC)C(O)C(C)O4)C(C)O3)C(C)/C=C/C=C3\COC4C(O)C(C)=CC(C(=O)O1)C34O)O2 (stereo not drawn) [ivermectin]
PPB (fb) (plasma): 0.93

Cc1cccc(C)c1NC(=O)C1CCCCN1C (stereo not drawn) [Mepivacaine]
PPB (fb) [2]: 0.77

Nc1ccc(S(=O)(=O)c2ccc(N)cc2)cc1 [Dapsone]
PPB (fb) [3]: 0.75

CC12CCC3c4ccc(O)cc4CCC3C1CCC2O (stereo not drawn) [17-a-estradiol]
PPB (fb) [2]: 0.98

Cc1ccccc1-n1c(C)nc2ccccc2c1=O [methaqualone]
PPB (fb) (plasma): 0.85

O=C(O)/C=C/c1ccc(O)cc1 [p-coumaric acid]
PPB (fb) [1]: 0.65

CN(C)Cc1nnc2n1-c1ccc(Cl)cc1C(c1ccccc1)=NC2 [Adinazolam]
PPB (fb) (plasma): 0.69

CCC1CN2CCC1CC2[C@@H](O)c1ccnc2ccc(OC)cc12 (stereo partly drawn) [Dihydroquinidine]
PPB (fb) [3]: 0.78

C=CC1=C(C(=O)O)N2C(=O)[C@@H](NC(=O)/C(=N\O)c3csc(N)n3)[C@H]2SC1 [cefdinir]
PPB (fb) [2]: 0.65

COc1c(Cl)ccc(Cl)c1C(=O)O [Dicamba]
PPB (fb) [3]: 0.9

C[C@@H]([C@@H](O)c1ccc(O)cc1)N1CCC(O)(c2ccccc2)CC1 [Traxoprodil]
PPB (fb) [2]: 0.37

OCCN1CCN(CCC=C2c3ccccc3Sc3ccc(C(F)(F)F)cc32)CC1 [flupenthixol]
PPB (fb) [1]: 0.95

CC#C[C@]1(O)CC[C@H]2[C@@H]3CCC4=CC(=O)CCC4=C3[C@@H](c3ccc(N(C)C)cc3)C[C@@]21C [mifepristone]
PPB (fb) [1]: 0.98

CN(C)CCC=C1c2ccccc2CCc2ccccc21 [Amitriptyline]
PPB (fb) [2]: 0.94

CC(=O)OCC(=O)[C@@]12N=C(C)O[C@@H]1C[C@H]1[C@@H]3CCC4=CC(=O)C=C[C@]4(C)[C@H]3[C@@H](O)C[C@@]12C [deflazacort]
PPB (fb) [2]: 0.4

OC(CCN1CCCCC1)(c1ccccc1)C1CC2C=CC1C2 (stereo not drawn) [Biperiden]
PPB (fb) [3]: 0.93

COc1nc(N)nc2c1ncn2[C@@H]1O[C@H](CO)[C@@H](O)[C@@H]1O [Nelarabine]
PPB (fb) [3]: 0.2

Cc1cccc(N2CC(CO)OC2=O)c1 (stereo not drawn) [Toloxatone]
PPB (fb) (plasma): 0.5

CCNC(=O)[C@@H]1CCCN1C(=O)[C@H](CCCNC(=N)N)NC(=O)[C@H](CC(C)C)NC(=O)[C@@H](COC(C)(C)C)NC(=O)[C@H](Cc1ccc(O)cc1)NC(=O)[C@H](CO)NC(=O)[C@H](Cc1c[nH]c2ccccc12)NC(=O)[C@H](Cc1cnc[nH]1)NC(=O)[C@@H]1CCC(=O)N1 [buserelin]
PPB (fb) (human, plasma): 0.15

CC(=O)OCC(=O)[C@@]1(O)CC[C@H]2[C@@H]3CCC4=CC(=O)CC[C@]4(C)[C@H]3C(=O)C[C@@]21C [cortisone acetate]
PPB (fb) [2]: 0.95

CC(=O)N1CCN(c2ccc(OCC3COC(Cn4ccnc4)(c4ccc(Cl)cc4Cl)O3)cc2)CC1 (stereo not drawn) [ketoconazole]
PPB (fb) [2]: 0.92

CC(C)=CCC1C(=O)N(c2ccccc2)N(c2ccccc2)C1=O [feprazone]
PPB (fb) [1]: 0.95

O=C1CN=C(c2ccccc2Cl)c2cc(Cl)ccc2N1 [Delorazepam (Chlordesmethyldiazepam)]
PPB (fb) (plasma): 0.95

CCC1(CC)C(=O)NCC(C)C1=O (stereo not drawn) [methyprylon]
PPB (fb) (plasma): 0.6

O=C(O)c1cn(-c2ccc([N+](=O)[O-])cc2)c2cc(N3CCNCC3)c(F)cc2c1=O [7c(p-NO2)]
PPB (fb) [2]: 0.3

CO[C@@H]1[C@@H](OC(N)=O)[C@@H](O)[C@H](Oc2ccc3c(O)c(NC(=O)c4ccc(O)c(CC=C(C)C)c4)c(=O)oc3c2C)OC1(C)C [Novobiocin]
PPB (fb) [1]: 0.9

NCc1ccccc1CC(=O)N[C@@H]1C(=O)N2C(C(=O)O)=C(CSc3nnnn3CC(=O)O)CS[C@H]12 [Ceforanide]
PPB (fb) [3]: 0.81

CN(C)CC/C=C1/c2ccccc2Sc2ccc(Cl)cc21 [chlorprothixene]
PPB (fb) [2]: 0.99

CN1CCN2c3ccccc3Cc3ccccc3C2C1 (stereo not drawn) [mianserin]
PPB (fb) [1]: 0.93

CCCCCN(CCCOC)C(=O)[C@@H](CCC(=O)O)NC(=O)c1ccc(Cl)c(Cl)c1 [Dexloxiglumide]
PPB (fb) [3]: 0.98

OCCOCCN1CCN(C2=Nc3ccccc3Sc3ccccc32)CC1 [quetiapine]
PPB (fb) [1]: 0.83

C/C(=C\C(=O)OCCCCCCCCC(=O)O)C[C@@H]1OC[C@H](C[C@@H]2O[C@H]2[C@@H](C)[C@H](C)O)[C@@H](O)[C@H]1O [mupirocin]
PPB (fb) [1]: 0.96

COc1ccc(-c2nc3ccc(C4=NNC(=O)CC4C)cc3[nH]2)cc1 (stereo not drawn) [Pimobendan]
PPB (fb) [3]: 0.98

CCN(CC)C(=O)/C(C#N)=C/c1cc(O)c(O)c([N+](=O)[O-])c1 [Entacapone]
PPB (fb) [3]: 0.98

CC(C)C[C@H](NC(=O)[C@@H](COC(C)(C)C)NC(=O)[C@H](Cc1ccc(O)cc1)NC(=O)[C@H](CO)NC(=O)[C@H](Cc1c[nH]c2ccccc12)NC(=O)[C@H](Cc1cnc[nH]1)NC(=O)[C@@H]1CCC(=O)N1)C(=O)N[C@@H](CCCNC(=N)N)C(=O)N1CCC[C@H]1C(=O)NNC(N)=O [goserelin]
PPB (fb) (human, plasma): 0.2

CO[C@@]1(NC(=O)C2SC(=C(C(N)=O)C(=O)O)S2)C(=O)N2C(C(=O)O)=C(CSc3nnnn3C)CS[C@@H]21 (stereo partly drawn) [Cefotetan]
PPB (fb) [3]: 0.84

CC1(C)O[C@@H]2C[C@H]3[C@@H]4C[C@H](F)C5=CC(=O)C=C[C@]5(C)[C@H]4[C@@H](O)C[C@]3(C)[C@]2(C(=O)CO)O1 [flunisolide]
PPB (fb) [2]: 0.5

CC(C(=O)NC1C(=O)N2C1SC(C)(C)C2C(=O)O)c1ccccc1 (stereo not drawn) [penicillin19]
PPB (fb) [1]: 0.68
